The values that follow come from patent US4489096A, “Quinone compounds, their production and use” (Takeda Chemical Industries, Ltd., priority 1982, dated 1984).

Test [1] has as its system 5-lipoxygenase products (5-HETE) in RBL-1 cells. The test can be described thus: Inhibition of 5-lipoxygenase products in RBL-1 cells (5-HETE production, HPLC). The test is classed as cell-based. The note with it: Rattus norvegicus, 20 min, arachidonic acid + A-23187, 37° C., read-out: Percent inhibition of generation and release of 5-HETE; for inhibition at 10 µM: 10^-5 M test compound; for inhibition at 1 µM: 10^-6 M test compound. The method, then: RBL-1 cells (rat basophilic leukemia cells) (10^7 cells) were suspended in 0.5 ml of MCM (mast cell medium), the test solution (composed of 0.5 ml MCM, 50 μg arachidonic acid, 10 μg A-23187 and 10^-6 M or 10^-5 M quinone compound) was added, and the mixture was incubated at 37° C. for 20 minutes. Thereafter, 4 ml of ethanol and 1,4-dimethoxy-2-methyl-3-(3-methoxypropyl)naphthalene (internal standard) were added, and the mixture was shaken well, then allowed to stand at room temperature for 10 minutes, and centrifuged at 2,000 revolutions per minute for 10 minutes. The supernatant was collected and concentrated to about 200 μl under reduced pressure. A mixed solvent for high performance liquid chromatography [CH3 CN (1500)-CH3 OH (500)-water (1100)-acetic acid (2), adjusted to pH 5.6 with aqueous ammonia] was added to the concentrate to make up to 1 ml. A 200-μl portion of this solution was subjected to high performance liquid chromatography for assaying 5-HETE (5-hydroxyeicosatetraenoic acid).
The percentage of inhibition of 5-HETE production (IE) is expressed by (1-b/a)×100, where a is the peak height or area corrected relative to the internal standard peak for the quinone compound-free (control) test solution and b is the peak height or area corrected in relation to the internal standard peak for the quinone compound-containing test solution.

Test [2] has as its system SRS-A generation and release. The test can be described thus: Inhibitory effect on generation and release of SRS-A (sensitized guinea pig lung fragments, antigen egg white albumin). It counts as cell-based, guinea pigs (Hartley strain). The note with it: Cavia porcellus; 10^-6 M test compound; number of experiments 3; lung fragments from sensitized guinea pigs. The method, then: The compounds obtained in accordance with the invention were assayed for the inhibitory effect on the generation of SRS-A by the method of Orange and Moore [J. Immunol., vol. 116, page 392 (1976)]. Thus, the test compound and antigen (egg white albumin) were simultaneously added to the lung fragments from guinea pigs (Hartley strain, male and female, weighing 300-350 g) sensitized with egg white albumin as the antigen. The quantity of SRS-A generated and released on that occasion was determined by the method of Brocklehurst [J. Physiol., vol. 151, pages 416-435 (1960)].

On to `CCCCCC#CCC#CCC#CCC#CCCCC(=O)O` [ETYA, 5,8,11,14eicosatetraynoic acid, reference compound], for which, in test [1], the inhibition at 10 µM was 39.4% and the inhibition at 1 µM came to 35.9%.
For `CC1=C(C)C(=O)C(CCCCC#CCCCC#CC=O)=C(C)C1=O` [Ia-1], in test [1], the inhibition at 10 µM turned out to be 83.5% and the inhibition at 1 µM was 71.6%. In test [2], the inhibition at 1 µM turned out to be 59 ± 15%.
On the same counts, the results for `COC1=C(OC)C(=O)C(CCCCC#CCCCC#CC=O)=C(C)C1=O` [Ia-2] are 84.3%, 72.3% and 66 ± 6%.
For the molecule `CC1=C(C)C(=O)C(CCCCC#CCCCC#CC(=O)O)=C(C)C1=O` [Ia-3, 2,3,5-trimethyl-6-(11-carboxyundeca-5,10-diynyl)-1,4-benzoquinone], in test [1], the inhibition at 10 µM worked out at 86.7% and the inhibition at 1 µM was 75.3%. Further, the inhibition at 1 µM in test [2] was found to be 58 ± 6%.
With `COC1=C(OC)C(=O)C(CCCCC#CCCCC#CC(=O)O)=C(C)C1=O` [Ia-4], in test [1], the inhibition at 10 µM came to 85.4% and the inhibition at 1 µM stood at 70.6%. Besides, the inhibition at 1 µM in test [2] was 61 ± 8%.
